We go through 11 substances from patent US6524585B1, “Indolicidin analogs and methods of using same” (The Regents of the University of California, priority 1998, dated 2003).

“Also recorded” adds a separate entry of the source. Non-standard residues stand in square brackets, D forms with d. No end group written: not given here. hSer = N[C@@H](CCO)C(=O)O

One experiment has as its system Staphylococccus aureus. Kind of experiment: agar diffusion assay (zone of inhibition). The experiment is classed as cell-based. As to conditions: S. aureus. The protocol:
(§1) The antimicrobial activity of the indolicidin analogs was determined using microbicidal or microbial inhibition assays. The indolicidin analogs initially were characterized using a microbial inhibition method, including a modified plate diffusion assay (Hultmark et al., EMBO J. 2:571-573 (1983); Lehrer et al., J. Immunol. Meth. 137:167-173 (1991), each of which is incorporated herein by reference).
(§2) Nutrient-containing agar (or agarose) plates were seeded with a selected target microorganism and peptide samples (5-10 μl) were placed into small wells formed in the solid medium. Following an initial incubation interval of 1 to 4 hr, the well-containing layer was overlayed with enriched (2× normal) solid medium in order to support microbial growth outside the perimeter of inhibition. After overnight incubation at 30° C. to 37° C., the antimicrobial activity was quantitated by measuring the clear zones around each well (zone of inhibition).
In general terms: A growth-free zone around the sample is the usual read-out of agar diffusion tests.
On to “[H2N-]Ile-Leu-Pro-Trp-Lys-Trp-Pro-Trp-Trp-Pro-Trp-Arg-Arg-Hse (ILPWKWPWWPWRRX; C-terminal homoserine; MOD_RES (14) Xaa is homoserine (Hse).) [Indol(1-13)-Hse]”, for which the “antimicrobial activity (growth inhibition, zone of inhibition)” value is “antimicrobial activity equivalent to that of synthesized Indol 1-13”.

The test system of a further experiment is microorganisms. Nature of the experiment: antimicrobial activity, microbicidal or microbial inhibition assays (overall statements). The experiment is classed as cell-based. To be noted: overall statement, microorganism not specified. The protocol: as §1, §2
Microbicidal activity was measured by first incubating the target organism with an indolicidin analog in an aqueous suspension, then plating the suspension to quantitate surviving microorganisms. Cultures were grown to mid log phase in an appropriate medium, harvested, washed, and resuspended to 1-2×10^7 colony forming units (CFU) per ml. To conserve peptide, the incubation volume usually was 0.05 ml, with the final cell concentration being 1-2×10^6CFU/ml. Peptide stock solutions, usually made up in 0.01% acetic acid, were diluted in the incubation buffer to a final concentration of 1 μg/ml to 100 μg/ml, and the incubation was initiated by addition of an appropriate volume of the bacterial or fungal stock suspension to the prewarmed (37° C.) peptide-buffer mixture. At timed intervals, 50 μl or 100 μl samples were removed and diluted serially, then plated on nutrient-containing agar plates. Killing activity was quantitated by determining the reduction in CFU relative to appropriate control incubations.
For “Indol 1-13/F-Hse: Indol 1-13/F peptide with a carboxy terminal homoserine, produced by cyanogen bromide cleavage (ILPFKFPFFPFRR[hSer])”, the antimicrobial activity result was “have antimicrobial activity”. As for “Leu-Pro-Phe-Lys-Phe-Pro-Phe-Phe-Pro-Phe-Arg-Arg-NH2 (LPFKFPFFPFRR-NH2) [Indol 2-13/F]”, the antimicrobial activity result is “exhibits antimicrobial activity”. With “Leu-Pro-Trp-Lys-Trp-Pro-Trp-Trp-Pro-Trp-Arg-Arg-NH2 (LPWKWPWWPWRR-NH2) [Indol 2-13]”, the antimicrobial activity result is “broad spectrum antimicrobial activity; also recorded: exhibits antimicrobial activity”. “Lys-Trp-Pro-Trp-Trp-Pro-Trp-Arg-Arg-NH2 (KWPWWPWRR-NH2) [Indol 5-13]”: the antimicrobial activity result was “broad spectrum antimicrobial activity; also recorded: exhibits antimicrobial activity”. With “Pro-Trp-Lys-Trp-Pro-Trp-Trp-Pro-Trp-Arg-Arg-NH2 (PWKWPWWPWRR-NH2) [Indol 3-13]”, the antimicrobial activity result was “broad spectrum antimicrobial activity; also recorded: exhibits antimicrobial activity”. As for “Trp-Lys-Trp-Pro-Trp-Trp-Pro-Trp-Arg-Arg-NH2 (WKWPWWPWRR-NH2) [Indol 4-13]”, the antimicrobial activity entry is recorded as “broad spectrum antimicrobial activity; also recorded: exhibits antimicrobial activity”. Still for that read-out and setting: under “[H2N-]Ile-Leu-Pro-Trp-Lys-Trp-Pro-Trp-Trp-Pro-Trp-Arg-Arg-Hse (ILPWKWPWWPWRRX; C-terminal homoserine; MOD_RES (14) Xaa is homoserine (Hse).) [Indol(1-13)-Hse]” stands “have antimicrobial activity”.

Another experiment relates to fungi such as Cryptococcus. Nature of the experiment: antimicrobial activity against fungi. The experiment is classed as cell-based.
Settings: not given
On to “Lys-Trp-Pro-Trp-Trp-Pro-Trp-Arg-NH2 (KWPWWPWR-NH2) [Indol 5-12]”, for which the “antimicrobial activity against fungi such as Cryptococcus” value is recorded as “substantial antimicrobial activity”. Same read-out and setting: to “Pro-Trp-Lys-Trp-Pro-Trp-Trp-Pro-Trp-Arg-NH2 (PWKWPWWPWR-NH2) [Indol 3-12]” belongs “substantial antimicrobial activity”. As for “Trp-Lys-Trp-Pro-Trp-Trp-Pro-Trp-Arg-NH2 (WKWPWWPWR-NH2) [Indol 4-12]”, the “antimicrobial activity against fungi such as Cryptococcus” value is on record as “substantial antimicrobial activity”. Still for that read-out and setting: under “Trp-Pro-Trp-Trp-Pro-Trp-Arg-NH2 (WPWWPWR-NH2) [Indol 6-12]” stands “substantial antimicrobial activity”.
